Assay results taken from US10851108B2, “Substituted bicyclic heterocyclic compounds” (BRISTOL-MYERS SQUIBB COMPANY, priority 2016, dated 2020).
pIC50: −log10 of the molar value.

Biological target: hROMK (human Kir1.1) (Homo sapiens (Human), UniProt P48048)
Assay: Thallium Flux Assay
Type: cell-based
Details: CHO T-Rex hROMK stable cell line, 10-point concentration response; read-out: hROMK Th+ Flux IC50
Protocol: Solutions and reagents: Thallium flux assay was performed using FluxOR kit (F10017, Life Technologies). Loading buffer, assay buffer and stimulus buffer were prepared using kit components. HBSS (Hank's balanced salt solution, Cat #14025-092) was purchased separately from Life Technologies.
To prepare 10 ml of loading buffer: 10 μl of FluxOR dye (reconstituted in DMSO) was first added to 100 μl of powerload concentrate and this mix along with 100 μl of Probenicid (100×) was then added to 9.79 ml of HBSS. Assay buffer (10 ml) was prepared by addition of 2 ml of FluxOR chloride free buffer (5×), 100 μl of Probenicid (100×), and 0.2 ml of Ouabain (13.77 mM) to 7.7 ml of deionized water. Stimulus buffer was composed of 15 mM Tl2SO4, 0.75 mM K2SO4 in FluxOR chloride free buffer (diluted to 1× using deionized water). The final concentration of Tl2SO4 and K2SO4 in the assay plate was 3 mM and 0.15 mM, respectively.
Plating and induction of cells: The CHO T-Rex hROMK (human Kir1.1) stable cell line was maintained in Ham's F12 media supplemented with 10% FBS, 1% Penicillin-Streptomycin, 500 μg/ml Zeocin and 10 μg/ml Blasticidin at 37° C. in a 5% CO2 incubator. One day before the experiment, the cells were dissociated by incubation with Versene solution (15040-066, Life Technologies) for 10 minutes at 37° C. followed by addition of growth media. The cell suspension was centrifuged at 1200 rpm for 5 min. After discarding the supernatant, the cells were resuspended in fresh growth media and cell concentration was determined using a hemocytometer. Next, 0.5 μg/ml of Doxycycline was added to the cell suspension to induce hROMK channel expression and 50 μl (10,000 cells/well) of cell suspension was added to each well of a poly-D lysine coated 384 well black, optically clear bottom plate (6007718, Perkin Elmer). The assay plate was kept at 37° C. in a 5% CO2 incubator.
Assay protocol: On the day of experiment, media was removed and loading buffer was added (30 μl/well) to the assay plate. The cells were incubated in the loading buffer for 30 minutes at 37° C. The loading buffer was then replaced by assay buffer (30 μl/well) followed by addition of test compounds or controls. The cells were incubated with compounds for 30 minutes and the plate was then mounted on FlexStation (Molecular Devices) for fluorescence read out with excitation and emission wavelengths at 488 and 525 nm, respectively. Each well was read for 90 sec at 2 sec interval and the stimulus buffer was added after 20 seconds of baseline recording. The final DMSO concentration was either 0.5 or 1% in the assay plate. […] controls were defined by addition of DMSO or 3 μM of a standard ROMK inhibitor, respectively, to the wells instead of a test compound.
A 10-point concentration response curve was used to estimate the IC50 value of test compounds.
The data in Table 3 is reported with two significant figures.

hROMK (human Kir1.1), sequence (P48048 whole entry): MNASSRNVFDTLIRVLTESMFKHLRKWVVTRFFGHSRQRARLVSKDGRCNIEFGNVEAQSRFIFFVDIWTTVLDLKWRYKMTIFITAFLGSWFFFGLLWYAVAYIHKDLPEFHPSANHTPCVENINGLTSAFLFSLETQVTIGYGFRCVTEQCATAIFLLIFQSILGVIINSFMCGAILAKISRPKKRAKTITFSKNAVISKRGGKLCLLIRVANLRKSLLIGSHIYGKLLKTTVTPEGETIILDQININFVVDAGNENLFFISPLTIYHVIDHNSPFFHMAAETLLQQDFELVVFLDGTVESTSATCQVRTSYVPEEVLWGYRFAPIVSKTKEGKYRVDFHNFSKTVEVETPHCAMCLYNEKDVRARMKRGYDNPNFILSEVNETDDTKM

Structure (SMILES) | pIC50
Cc1c(C(CO)N2CCc3cc(Nc4ccc(C#N)c(F)c4)ccc3C2)ccc2c1COC2=O (single isomer, unassigned) [Example 33-I, 2-fluoro-4-((2-(2-hydroxy-1-(4-methyl-1-oxo-1,3-dihydroisobenzofuran-5-yl)ethyl)-1,2,3,4-tetrahydroisoquinolin-6-yl)amino) benzonitrile] | 6.31
Cc1c(C(CO)N2CCc3cc(Nc4ccc(C#N)c(F)c4)ccc3C2)ccc2c1COC2=O (single isomer, unassigned) [Example 33-II, 2-fluoro-4-((2-(2-hydroxy-1-(4-methyl-1-oxo-1,3-dihydroisobenzofuran-5-yl)ethyl)-1,2,3,4-tetrahydroisoquinolin-6-yl)amino) benzonitrile] | 5.74
Cc1c(C(O)CN2CCc3nc(-n4ncc5c(C#N)ccnc54)ncc3C2)ccc2c1COC2=O (single isomer, unassigned) [Example 35-I, 1-(6-(2-hydroxy-2-(4-methyl-1-oxo-1,3-dihydroisobenzofuran-5-yl)ethyl)-5,6,7,8-tetrahydropyrido[4,3-d]pyrimidin-2-yl)-1H-pyrazolo[3,4-b]pyridine-4-carbonitrile] | 6.10
Cc1c(C(O)CN2CCc3nc(-n4ncc5c(C#N)ccnc54)ncc3C2)ccc2c1COC2=O (single isomer, unassigned) [Example 35-II, 1-(6-(2-hydroxy-2-(4-methyl-1-oxo-1,3-dihydroisobenzofuran-5-yl)ethyl)-5,6,7,8-tetrahydropyrido[4,3-d]pyrimidin-2-yl)-1H-pyrazolo[3,4-b]pyridine-4-carbonitrile] | 5.31
Cc1c(C(O)CN2CCc3nc(-n4ncc5ncccc54)ncc3C2)ccc2c1COC2=O (single isomer, unassigned) [Example 41-II, 5-(2-(2-(1H-pyrazolo[4,3-b]pyridin-1-yl)-7,8-dihydropyrido[4,3-d]pyrimidin-6(5H)-yl)-1-hydroxyethyl)-4-methylisobenzofuran-1(3H)-one] | 5.92
Cc1c(C(O)CN2CCc3nc(-n4ccc5c(C#N)cncc54)ncc3C2)ccc2c1COC2=O (single isomer, unassigned) [Example 42-II, 1-(6-(2-hydroxy-2-(4-methyl-1-oxo-1,3-dihydroisobenzofuran-5-yl)ethyl)-5,6,7,8-tetrahydropyrido[4,3-d]pyrimidin-2-yl)-1H-pyrrolo[2,3-c]pyridine-4-carbonitrile] | 6.68
Cc1c(C(O)CN2CCc3nc(-n4ncc5c(C#N)cncc54)ncc3C2)ccc2c1COC2=O (single isomer, unassigned) [Example 43-II, 1-(6-(2-hydroxy-2-(4-methyl-1-oxo-1,3-dihydroisobenzofuran-5-yl)ethyl)-5,6,7,8-tetrahydropyrido[4,3-d]pyrimidin-2-yl)-1H-pyrazolo[3,4-c]pyridine-4-carbonitrile] | 6.19
Cc1c(C(O)CN2CCc3nc(-n4ccc5cc(C#N)cnc54)ncc3C2)ccc2c1COC2=O (single isomer, unassigned) [Example 44-I, 1-(6-(2-hydroxy-2-(4-methyl-1-oxo-1,3-dihydroisobenzofuran-5-yl)ethyl)-5,6,7,8-tetrahydropyrido[4,3-d]pyrimidin-2-yl)-1H-pyrrolo[2,3-b]pyridine-5-carbonitrile] | 5.68
Cc1c(C(CO)N2CCc3nc(-n4ccc5cc(C#N)cnc54)ncc3C2)ccc2c1COC2=O (single isomer, unassigned) [Example 45-I, 1-(6-(2-hydroxy-1-(4-methyl-1-oxo-1,3-dihydroisobenzofuran-5-yl)ethyl)-5,6,7,8-tetrahydropyrido[4,3-d]pyrimidin-2-yl)-1H-pyrrolo[2,3-b]pyridine-5-carbonitrile] | 5.33
Cc1c(C(O)CN2CCc3nc(-n4ncc5cc(C#N)ccc54)ncc3C2)ccc2c1COC2=O (single isomer, unassigned) [Example 50, 1-(6-(2-hydroxy-2-(4-methyl-1-oxo-1,3-dihydroisobenzofuran-5-yl)ethyl)-5,6,7,8-tetrahydropyrido[4,3-d]pyrimidin-2-yl)-1H-indazole-5-carbonitrile] | 6.15
CCOC(=O)c1cnc2cnn(-c3ncc4c(n3)CCN(CC(O)c3ccc5c(c3C)COC5=O)C4)c2c1 (single isomer, unassigned) [Example 51-I, ethyl 1-(6-(2-hydroxy-2-(4-methyl-1-oxo-1,3-dihydroisobenzofuran-5-yl)ethyl)-5,6,7,8-tetrahydropyrido[4,3-d]pyrimidin-2-yl)-1H-pyrazolo[4,3-b]pyridine-6-carboxylate] | 6.31
COC(=O)c1cnc2ccn(-c3ncc4c(n3)CCN(CC(O)c3ccc5c(c3C)COC5=O)C4)c2c1 (single isomer, unassigned) [Example 52-I, methyl 1-(6-(2-hydroxy-2-(4-methyl-1-oxo-1,3-dihydroisobenzofuran-5-yl)ethyl)-5,6,7,8-tetrahydropyrido[4,3-d]pyrimidin-2-yl)-1H-pyrrolo[3,2-b]pyridine-6-carboxylate] | 5.91
Cc1c(C(O)CN2CCc3nc(-n4cnc5cccnc54)ncc3C2)ccc2c1COC2=O (single isomer, unassigned) [Example 55-I, 5-(2-(2-(3H-imidazo[4,5-b]pyridin-3-yl)-7,8-dihydropyrido[4,3-d]pyrimidin-6(5H)-yl)-1-hydroxyethyl)-4-methylisobenzofuran-1(3H)-one] | 5.83
Cc1c(CN2Cc3cnc(Nc4ccc(C#N)c(F)c4)nc3CC2CO)ccc2c1COC2=O (single isomer, unassigned) [Example 57-I, 2-fluoro-4-((7-(hydroxymethyl)-6-((4-methyl-1-oxo-1,3-dihydroisobenzo-furan-5-yl)methyl)-5,6,7,8-tetrahydro-pyrido[4,3-d]pyrimidin-2-yl)amino) benzonitrile] | 6.08
Cc1c(C(O)CN2CCc3nc(Nc4cncc(C#N)c4)ncc3C2)ccc2c1COC2=O (single isomer, unassigned) [Example 61-I, 5-((6-(2-hydroxy-2-(4-methyl-1-oxo-1,3-dihydroisobenzofuran-5-yl)ethyl)-5,6,7,8-tetrahydropyrido[4,3-d]pyrimidin-2-yl)amino)nicotinonitrile] | 6.25
Cc1c(C(O)CN2CCc3nc(Nc4ccc5oc(=O)n(C)c5c4)ncc3C2)ccc2c1COC2=O (single isomer, unassigned) [Example 62-I, 5-((6-(2-hydroxy-2-(4-methyl-1-oxo-1,3-dihydroisobenzofuran-5-yl)ethyl)-5,6,7,8-tetrahydropyrido[4,3-d]pyrimidin-2-yl)amino)-3-methylbenzo[d] oxazol-2(3H)-one] | 5.99
Cc1c(C(O)CN2CCc3nc(Nc4ccc(-n5cnnn5)cn4)ncc3C2)ccc2c1COC2=O (single isomer, unassigned) [Example 63-I, 5-(2-(2-((5-(1H-tetrazol-1-yl)pyridine-2-yl)amino)-7,8-dihydropyrido[4,3-d]pyrimidin-6(5H)-yl)-1-hydroxyethyl)-4-methylisobenzofuran-1(3H)-one] | 5.91
COc1cc(Nc2ncc3c(n2)CCN(CC(O)c2ccc4c(c2C)COC4=O)C3)ncc1C#N (single isomer, unassigned) [Example 64-I, 6-((6-(2-hydroxy-2-(4-methyl-1-oxo-1,3-dihydroisobenzofuran-5-yl)ethyl)-5,6,7,8-tetrahydropyrido[4,3-d]pyrimidin-2-yl)amino)-4-methoxynicotinonitrile] | 6.42
Cc1c(C(O)CN2CCc3nc(N4CCc5c(C#N)cccc54)ncc3C2)ccc2c1COC2=O (single isomer, unassigned) [Example 65-II, 1-(6-(2-hydroxy-2-(4-methyl-1-oxo-1,3-dihydroisobenzofuran-5-yl)ethyl)-5,6,7,8-tetrahydropyrido[4,3-d]pyrimidin-2-yl)indoline-4-carbonitrile] | 6.42
Cc1c(C(O)CN2CCc3nc(-n4cnc5ccccc54)ncc3C2)ccc2c1COC2=O (single isomer, unassigned) [Example 67-I, 5-(2-(2-(1H-benzo[d]imidazol-1-yl)-7,8-dihydropyrido[4,3-d]pyrimidin-6(5H)-yl)-1-hydroxyethyl)-4-methyliso-benzofuran-1(3H)-one] | 6.80
N#Cc1ccc(Nc2ncc3c(n2)CCN(Cc2ccc4c(c2)COC4=O)C3)cc1F [Example 2] | 6.02
